Laboratory results published in ChEMBL document CHEMBL5241112, “Insights into the recent progress in the medicinal chemistry of pyranopyrimidine analogs” (RSC Med Chem, 2022).
Values after ≈ are worked out from the molar mass of the structure shown.

Legend:
[1] = system: HepG2; experiment: Anticancer activity against human HepG2 cells assessed as reduction in cell viability; type: functional, cell-based
[2] = system: MCF7; experiment: Anticancer activity against human MCF7 cells assessed as reduction in cell viability; type: functional, cell-based
[3] = system: HCT-116; experiment: cells; details: Homo sapiens
[4] = molecular target: Alpha-glucosidase (Saccharomyces cerevisiae S288c, UniProt P53341+P38158+P07265); experiment: Inhibition of Saccharomyces cerevisiae alpha-glucosidase preincubated for 5 mins followed by PNP-GLUC substrate addition and measured after 20 mins by spectroscopic analysis; type: protein assay
[5] = molecular target: Albumin (Bos taurus, UniProt P02769); experiment: […] bovine serum albumin denaturation incubated for 23 mins by UV-Visible spectrophotometry
Sequence of Albumin (P02769 whole entry): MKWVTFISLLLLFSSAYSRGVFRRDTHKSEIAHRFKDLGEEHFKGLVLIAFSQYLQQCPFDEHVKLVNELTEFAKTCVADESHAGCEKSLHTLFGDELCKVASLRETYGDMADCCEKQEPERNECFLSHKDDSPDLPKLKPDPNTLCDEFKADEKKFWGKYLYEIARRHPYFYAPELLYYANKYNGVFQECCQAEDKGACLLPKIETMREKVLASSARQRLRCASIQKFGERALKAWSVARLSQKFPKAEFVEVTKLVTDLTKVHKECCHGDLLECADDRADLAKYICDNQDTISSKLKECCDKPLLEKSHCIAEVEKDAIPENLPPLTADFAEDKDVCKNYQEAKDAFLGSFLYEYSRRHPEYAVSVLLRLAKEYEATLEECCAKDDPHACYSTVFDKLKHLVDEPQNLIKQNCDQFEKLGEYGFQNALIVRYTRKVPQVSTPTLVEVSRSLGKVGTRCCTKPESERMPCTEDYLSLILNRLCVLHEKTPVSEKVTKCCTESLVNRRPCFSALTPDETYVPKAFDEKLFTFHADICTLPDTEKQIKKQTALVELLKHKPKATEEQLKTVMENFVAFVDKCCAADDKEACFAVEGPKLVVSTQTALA

[6] = Inhibition of porcine pancreatic alpha-amylase preincubated for 10 mins followed by substrate starch addition and measured after 10 mins by colorimetric analysis; set-up: species or system Sus scrofa
[7] = system: Mycobacterium tuberculosis; experiment: Antitubercular activity against Mycobacterium tuberculosis H37Rv assessed as bacterial growth inhibition incubated for 24 hrs by MABA assay; type: functional
[8] = system: HCT-116; experiment: Anticancer activity against human HCT-116 cells assessed as reduction in cell viability incubated for 96 hrs by MTT assay; type: functional, cell-based; details: HCT-116, 96 h
[9] = system: Bacillus cereus; experiment: Antimicrobial activity against Bacillus cereus ATCC14579 assessed as diameter of inhibition zone at 20 mg/ml incubated for 24 hrs by disk diffusion method; type: functional; details: read-out: DIZ
[10] = system: Staphylococcus aureus; experiment: Antimicrobial activity against Staphylococcus aureus NCTC7447 assessed as diameter of inhibition zone at 20 mg/ml incubated for 24 hrs by disk diffusion method; type: functional; details: read-out: DIZ
[11] = system: Klebsiella pneumoniae; experiment: Antimicrobial activity against Klebsiella pneumoniae UC57 assessed as diameter of inhibition zone at 20 mg/ml incubated for 24 hrs by disk diffusion method; type: functional; details: read-out: DIZ
[12] = system: Pseudomonas aeruginosa; experiment: Antimicrobial activity against Pseudomonas aeruginosa ATCC 27853 assessed as diameter of inhibition zone at 20 mg/ml incubated for 24 hrs by disk diffusion method; type: functional; details: read-out: DIZ
[13] = system: Escherichia coli; experiment: Antimicrobial activity against Escherichia coli ATCC 14169 assessed as diameter of inhibition zone at 20 mg/ml incubated for 24 hrs by disk diffusion method; type: functional; details: read-out: DIZ
[14] = system: Staphylococcus aureus; experiment: Antibacterial activity against Staphylococcus aureus assessed as diameter of inhibition zone; type: functional
[15] = system: Bacillus subtilis; experiment: Antibacterial activity against Bacillus subtilis assessed as diameter of inhibition zone; type: functional
[16] = system: Salmonella typhimurium; experiment: Antibacterial activity against Salmonella typhimurium assessed as diameter of inhibition zone; type: functional, Salmonella enterica subsp. enterica serovar Typhimurium
[17] = Antioxidant activity assessed as DPPH radical scavenging activity incubated for 20 mins by spectrophotometric analysis; type: functional; set-up: concentration or dose not given beside the values
[18] = Antioxidant activity assessed as hydroxyl radical scavenging activity incubated for 5 mins by spectrophotometric analysis; type: functional; set-up: concentration or dose not given beside the values
[19] = system: MCF7; experiment: cells; details: Homo sapiens, MCF7, 48 h
[20] = system: Escherichia coli; experiment: Antibacterial activity against Escherichia coli assessed as diameter of inhibition zone; type: functional

Structure (SMILES): COc1ccc(C2C(C#N)=C(NC(C)=O)Oc3[nH]c(=O)[nH]c(=O)c32)cc1 (stereo not given)
- IC50 [1]: 2.09 µM
- IC50 [2]: 2.43 µM
- IC50 [3]: 2.61 µM

Structure (SMILES): COc1ccc(C2C(C#N)=C(NC(=O)/C=C/C(=O)O)Oc3[nH]c(=O)[nH]c(=O)c32)cc1 (stereo not given)
- IC50 [1]: 2.09 µM
- IC50 [2]: 2.43 µM
- IC50 [3]: 2.61 µM

Structure (SMILES): COc1cc(C2C(C(=O)N3CCCCC3)=C(c3ccccc3O)Oc3[nH]c(=S)[nH]c(=O)c32)ccc1O (stereo not given)
- IC50 [4]: 4862 µM
- IC50 [5]: 23.3 µM
- IC50 [6]: 22.6 µM

Structure (SMILES): O=c1nc2c3c([nH]1)Oc1ccc4ccccc4c1C3c1c(c3ccccc3oc1=O)O2 (stereo not given)
- MIC [7]: 25 µg/mL (≈ 61.2 µM)

Structure (SMILES): CCO/C=N/C1=C(C#N)C(c2cccs2)c2c([nH]c(=O)[nH]c2=O)O1 (stereo not given)
- IC50 [8]: 2.9 µM

Structure (SMILES): O=c1nc2c3c([nH]1)Oc1ccc(Cl)cc1C3c1c(c3ccccc3oc1=O)O2 (stereo not given)
- MIC [7]: 6.25 µg/mL (≈ 15.9 µM)

Structure (SMILES): COc1ccc2c(c1)C1c3c(nc(=O)[nH]c3O2)Oc2c1c(=O)oc1ccccc21 (stereo not given)
- MIC [7]: 50 µg/mL (≈ 129 µM)

Structure (SMILES): CN[C@@H]1C[C@H]2O[C@@](C)([C@@H]1OC)n1c3ccccc3c3c4c(c5c6ccccc6n2c5c31)C(=O)NC4 [STAUROSPORINE]
- IC50 [8]: 6.94 µM

Structure (SMILES): N#CC1=C(N)Oc2[nH]c(=O)[nH]c(=O)c2C1c1ccccc1[N+](=O)[O-] (stereo not given)
- zone of inhibition at 20000 µg/mL [9]: 10 mm
- zone of inhibition at 20000 µg/mL [10]: 5 mm
- zone of inhibition at 20000 µg/mL [11]: 6 mm
- zone of inhibition at 20000 µg/mL [12]: 9 mm
- zone of inhibition at 20000 µg/mL [13]: 11 mm

Structure (SMILES): N#CC1=C(N)Oc2[nH]c(=O)[nH]c(=O)c2C1c1ccccc1 (stereo not given)
- zone of inhibition at 20000 µg/mL [9]: 12 mm
- zone of inhibition at 20000 µg/mL [10]: 8 mm
- zone of inhibition at 20000 µg/mL [11]: 5 mm
- zone of inhibition at 20000 µg/mL [12]: 14 mm
- zone of inhibition at 20000 µg/mL [13]: 13 mm
- diameter of the inhibition zone (DIZ) [14]: 8 mm
- diameter of the inhibition zone (DIZ) [15]: 10 mm
- diameter of the inhibition zone (DIZ) [16]: 10 mm

Structure (SMILES): COc1ccccc1C1C(C#N)=C(N)Oc2[nH]c(=O)[nH]c(=O)c21 (stereo not given)
- zone of inhibition at 20000 µg/mL [9]: 11 mm
- zone of inhibition at 20000 µg/mL [10]: 15 mm
- zone of inhibition at 20000 µg/mL [11]: 13 mm
- zone of inhibition at 20000 µg/mL [12]: 7 mm
- zone of inhibition at 20000 µg/mL [13]: 9 mm

Structure (SMILES): O=c1[nH]c2c(c(=O)[nH]1)Oc1c(c(=O)oc3ccccc13)C2c1ccccc1O (stereo not given)
- Activity [17]: 59.1%
- Activity [18]: 54.3%

Structure (SMILES): CCO/C=N/C1=C(C#N)C(c2ccc(OC)cc2)c2c([nH]c(=O)[nH]c2=O)O1 (stereo not given)
- IC50 [1]: 2.09 µM
- IC50 [2]: 2.43 µM
- IC50 [3]: 2.61 µM

Structure (SMILES): COc1cc(C2CC(=O)Oc3[nH]c(=O)[nH]c(=O)c32)cc(OC)c1OC (stereo not given)
- IC50 [19]: 8.9 µM

Structure (SMILES): O=c1nc2c3c([nH]1)Oc1cc(O)ccc1C3c1c(c3ccccc3oc1=O)O2 (stereo not given)
- MIC [7]: 50 µg/mL (≈ 134 µM)

Structure (SMILES): O=c1nc2c3c([nH]1)Oc1ccccc1C3c1c(c3ccccc3oc1=O)O2 (stereo not given)
- MIC [7]: 12.5 µg/mL (≈ 34.9 µM)

Structure (SMILES): COc1ccc(C2C(C#N)=C(N)Oc3[nH]c(=O)[nH]c(=O)c32)cc1OC (stereo not given)
- zone of inhibition at 20000 µg/mL [9]: 9 mm
- zone of inhibition at 20000 µg/mL [10]: 8 mm
- zone of inhibition at 20000 µg/mL [11]: 14 mm
- zone of inhibition at 20000 µg/mL [12]: 4 mm
- zone of inhibition at 20000 µg/mL [13]: 8 mm
- diameter of the inhibition zone (DIZ) [15]: 10 mm
- diameter of the inhibition zone (DIZ) [16]: 8 mm

Structure (SMILES): N#CC1=C(N)Oc2[nH]c(=O)[nH]c(=O)c2C1c1cccc(Br)c1 (stereo not given)
- diameter of the inhibition zone (DIZ) [14]: 16 mm
- diameter of the inhibition zone (DIZ) [15]: 18 mm
- diameter of the inhibition zone (DIZ) [20]: 14 mm
- diameter of the inhibition zone (DIZ) [16]: 16 mm

Structure (SMILES): N#CC1=C(N)Oc2[nH]c(=O)[nH]c(=O)c2C1c1ccccc1Cl (stereo not given)
- diameter of the inhibition zone (DIZ) [14]: 20 mm
- diameter of the inhibition zone (DIZ) [15]: 18 mm
- diameter of the inhibition zone (DIZ) [20]: 14 mm
- diameter of the inhibition zone (DIZ) [16]: 18 mm
